Entries after “also recorded” stand apart in the source; their conditions may differ.
Key:
α-SMA = α-SMA immunofluorescence of liver sections (hepatic stellate cell activation); assay type: in vivo; conditions: HF diet mice + AC261066 or CD1530; vs HF-vehicle
Source text: (§1) WT male C57/BL6 male mice were maintained on either a standard laboratory chow-fed diet (CFD) with 13% kcal fat, (diet #5053, Lab Diet, Inc, St. Louis, Mo.) or a high fat, western style diet (HFD) with 60% kcals from fat, (diet #58126, Lab Diet, Inc., St. Louis, Mo.) for 4 months. One month after the start of the high fat diet treatment, the high fat diet group was further split into 2 groups for 3 months: i) high fat diet and the drinking water containing 1% DMSO; ii) high fat diet and the drinking water containing 1.5 mg/100 ml AC261066, a specific RARβ agonist. Then mice were sacrificed by cervical dislocation. Blood and various tissue samples were harvested.
Staining. Fresh mouse liver samples were embedded in optimal cutting temperature (OCT) medium and immediately frozen to −70 centigrade. Cryosections were then fixed in 4% formaldehyde for 1 hr at room temp. Slides were then rinsed three times in deionized water (dH2O) for 30 s, followed by treatment with 0.5% Triton X-100 in PBS for 5 min. Sections were then washed three times with PBS for 5 min. Samples were with incubated 2% bovine serum albumin (BSA) for 30 min at room temperature to block for unspecific antibody binding. Following blocking, sections were washed three times in PBS and incubated with mouse monoclonal antibody against α-SMA (1:500) (Dako, Inc) for 24 h at 4° C. After 24 h sections were washed three times in PB and incubated with Alexa-Flour-488 anti-mouse secondary anti-body (1:500) (Invitrogen, Inc) for 30 min at room temperature. Sections were then washed three times in PBS and incubated with working strength oil-red O solution for 30 minutes at room temperature. Sections were then rinsed for 30 minutes under running tap water and cover-slipped with Vectashield hard mount plus DAPI (Vector Labs, Inc).

[1] = tested on: retinyl palmitate and retinol; test: HPLC analysis of liver retinoids; assay type: in vivo, mice
Source text: as §1
The frozen liver tissue samples (˜100 mg) were homogenized in 500 μl cold phosphate-buffered saline (PBS). In addition, 100 μl serum was diluted in cold PBS to total volume of 500 μl. Retinyl acetate was added to each sample before the retinoid extraction for the calculation of extraction efficiency. The retinoids were extracted into 350 μl of organic solution (acetonitrile/butanol, 50:50, v/v) in the dark. The high performance liquid chromatography (HPLC) was performed using a Waters Millennium system (Waters). Each sample (100 μl of the 350 μl) was loaded onto an analytical 5-μm reverse phase C18 column (Vydac, Hesperia, Calif.) and eluted at a flow rate of 1.5 ml/min. Two mobile phase gradient systems were used. Retinoids were identified by HPLC based on two criteria: an exact match of the retention times of unknown peaks with those of authentic retinoid standards and identical UV light spectra (220-400 nm) of unknowns against spectra from authentic retinoid standards during HPLC by the use of a photodiode array detector. The amounts of retinoids were calculated from the areas under the peaks detected at the wave-length of 325 nm. The levels of retinol and retinyl esters were normalized to the tissue weight.

[2] = tested on: hepatocyte lipid accumulation; test: Hematoxylin and eosin staining of liver sections (hepatic steatosis); assay type: in vivo; conditions: HF diet mice 4 months + AC261066 or CD1530; vs HF-vehicle
Source text: as §1
At sacrifice, fresh mouse liver samples were fixed in 4% formaldehyde solution for 24 hr and embedded in paraffin blocks. Liver paraffin sections were cut 5 microns thick and mounted on glass slides and stained with hematoxylin and eosin (H and E) using standard protocols.

renal lipid accumulation = test: Hematoxylin and eosin staining of kidney sections; assay type: in vivo; conditions: HF diet mice + AC261066 or CD1530; vs HF-vehicle
Source text: as §1
At sacrifice, fresh mouse liver samples were fixed in 4% formaldehyde solution for 24 hr and embedded in paraffin blocks. Kidney paraffin sections were cut 5 microns thick and mounted on glass slides and stained with hematoxylin and eosin (H and E) using standard protocols.

hepatic lipids = test: Oil red O staining of liver sections; assay type: in vivo; conditions: HF diet mice + AC261066 or CD1530; vs HF-vehicle
Source text: as §1
Staining. Fresh mouse liver samples were embedded in optimal cutting temperature (OCT) medium and immediately frozen to −70 centigrade. Cryosections were then fixed in 4% formaldehyde for 1 hr at room temp. Slides were then rinsed three times in deionized water (dH2O) for 30 s, followed by treatment with 0.5% Triton X-100 in PBS for 5 min. Sections were then washed three times with PBS for 5 min. Samples were with incubated 2% bovine serum albumin (BSA) for 30 min at room temperature to block for unspecific antibody binding. Following blocking, sections were washed three times in PBS and incubated with mouse monoclonal antibody against α-SMA (1:500) (Dako, Inc) for 24 h at 4° C. […]

TNF-α = test: Semi-quantitative PCR liver, TNF-α; assay type: in vivo; conditions: HF diet mice + AC261066 or CD1530
Source text: as §1
(§2) Total RNA was extracted from mouse tissues using TRIzol reagent (Life technologies) and (1 μg) was used to synthesize cDNA. cDNA synthesis was performed at 42° C. for 1 h in a final volume of 20 μl using qScript (Quanta, MD). Semi-quantitative PCR were performed Taq DNA polymerase (Invitrogen, CA). Three step PCR was run as follows: 94° C. for 30 s, 58-64° C. for 45 s for primer annealing and 72° C. for 1 min for primer extension. The number of cycles for each primer pair for amplification in the linear range was determined experimentally. PCR products were resolved 2% agarose gels and visualized by staining with ehtidium bromide. Primers for gene expression used were as follows: […]

SREBP1-c = test: Semi-quantitative PCR liver, SREBP1-c; assay type: in vivo; conditions: HF diet mice + AC261066 or CD1530
Source text: as §1, §2

MCP-1 = test: Semi-quantitative PCR liver, MCP-1; assay type: in vivo; conditions: HF diet mice + AC261066 or CD1530
Source text: as §1, §2

Cyp26a1 = test: RT-PCR of Cyp26a1 in RA-treated WT and RARβ KO ES cells; assay type: cell-based, mouse
Protocol: (§3) Mouse J1 wild-type FS cells were cultured as described previously (27). C57BL/6 RARβ heterozygous mice were provided by Dr. Pierre Chambon (Strasbourg-Cedex, France) (26). Homozygous RARβ-null mice were obtained following mating of RARβ heterozygous mice. Blastocysts were harvested on day E3.5 and individually cultured on ES cell medium as previously described (28). Various markers for endodermal (day 5), pancreatic progenitor (day 11), endocrine progenitor (day 14) and endocrine (day 17) differentiation were analyzed by semi-quantitative RT-PCR in J1 wild-type and RARβ KO ESCs. Primers were designed around introns whenever possible. Total RNA extraction, semi-quantitative and quantitative PCR reactions were performed as previously described (18). Amplified PCR products were resolved on 1.5% agarose gels and visualized by staining with ethidium bromide. PCR bands were sequenced for verification of the correct amplicon. Quantitation of semi-quantitative gels was performed using ImageJ software (National Institutes of Health) from three experimental biological repeats.

RARβ = test: RT-PCR of RARβ in RA-treated ES cells; assay type: cell-based, mouse; conditions: WT ES cells, presence of RA vs untreated
Protocol: as §3

[3] = HF diet mice + AC261066 or CD1530 vs controls

Compound | α-SMA positive staining in liver (HSC activation) (α-SMA) | liver retinol compared to controls [1, 3] | liver retinyl palmitate compared to controls [1, 3] | retinyl palmitate levels in the liver lower than HF-vehicle treated mice ([1]; HF diet mice + CD1530) [%] | hepatocyte lipid infiltration / hepatic steatosis (H and E) [2] | renal lipid infiltration/accumulation (H and E) (renal lipid accumulation) | hepatic lipid accumulation (oil red O) (hepatic lipids) | mRNA levels of TNF-α in liver (TNF-α) | mRNA levels of SREBP1-c in liver (SREBP1-c) | mRNA levels of MCP-1 in liver (MCP-1) | Cyp26a1 expression (Cyp26a1) | RARβ transcript signal (RARβ)
O=C(O)c1ccc(-c2ccc3cc(O)c(C45CC6CC(CC(C6)C4)C5)cc3c2)cc1 [CD1530] | no evidence decreased lipid accumulation or α-SMA expression intensity or patterns | significantly lowered | significantly lowered | ~48 | no decrease in hepatic lipid accumulation | no decrease in renal lipid accumulation | not observed; also recorded: no evidence decreased lipid accumulation | markedly elevated | markedly higher | markedly elevated |  | 
CC1=C(/C=C/C(C)=C/C=C/C(C)=C/C(=O)O)C(C)(C)CCC1 [RA, all trans-retinoic acid] |  |  |  |  |  |  |  |  |  |  | RA-dependent Cyp26a1 expression was observed in both WT and RARβ KO ES cells | stronger RARβ signal
